Experimental data published in patent US5135935A, “Squalene synthetase inhibitors” (Merck & Co., Inc., priority 1991, dated 1992).

Molecular target: T1, Squalene Synthetase (Rattus norvegicus, UniProt Q02769)
T1 construct: from tissue; host or cells: liver microsomes of male Charles River CD rats fed 0.1% lovastatin
T1 sequence (Q02769 1-416): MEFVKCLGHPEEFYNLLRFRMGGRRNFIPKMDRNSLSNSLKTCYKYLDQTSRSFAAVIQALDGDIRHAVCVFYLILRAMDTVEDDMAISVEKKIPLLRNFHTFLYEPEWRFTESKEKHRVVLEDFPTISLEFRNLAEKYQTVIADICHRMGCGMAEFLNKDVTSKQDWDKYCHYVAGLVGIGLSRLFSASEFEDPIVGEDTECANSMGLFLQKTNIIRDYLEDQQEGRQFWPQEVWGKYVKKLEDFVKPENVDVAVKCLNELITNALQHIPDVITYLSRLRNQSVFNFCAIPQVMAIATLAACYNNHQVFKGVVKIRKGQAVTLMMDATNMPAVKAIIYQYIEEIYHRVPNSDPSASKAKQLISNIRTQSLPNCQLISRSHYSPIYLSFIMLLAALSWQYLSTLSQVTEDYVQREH
Assay: Squalene synthetase assay, rat liver microsomes, [4-14C]farnesyl pyrophosphate
Assay type: biochemical
Details: salt form as tabulated; for inhibition at 0.3 µg/mL: conc. 0.3 μg/mL; for IC50: 30° C., 20 minutes
Experimental: The intrinsic squalene synthetase inhibitory activity of representative compounds of this invention was measured by the standard in vitro protocol described below:
Male, Charles River CD rats (120 to 150 g) were fed a diet containing 0.1% lovastatin for 4 days. The livers from these rats were homogenized in 5 volumes (mL/g) of ice cold 50 mM HEPES (4-(2-hydroxyethyl)-1-piperazine-ethanesulfonic acid), 5 mM EDTA (ethylenediaminetetraacetic acid) pH 7.5 with a Potter-Elvehjem type tissue grinder. The homogenate was centrifuged twice at 20,000×g for 15 minutes at 4° C., discarding the pellet each time. The supernatant was then centrifuged at 100,000×g for 1 hour at 4° C. The resulting microsomal pellet was resuspended in a volume of the above homogenizing buffer equal to one-fifth the volume of the original homogenate. This microsomal preparation has a protein concentration of about 7 mg/mL. The microsomal suspensions were stored in aliquots at -70° C. Squalene synthetase activity in these aliquots is stable for at least several months.
Prenyl transferase was purified to use in the enzymatic synthesis of radiolabelled farnesyl pyrophosphate. Prenyl transferase was assayed by the method of Rilling (Methods in Enzymology 110, 125-129 (1985)) and a unit of activity is defined as the amount of enzyme that will produce 1 μmole of farnesyl pyrophosphate per minute at 30° C. in the standard assay.
The livers of 23 forty-day old male rats that had been fed 5% cholestyramine plus 0.1% lovastatin were homogenized in a Waring blender in 1 liter of 10 mM mercaptoethanol, 2 mM EDTA, 25 μM leupeptin, 0.005% phenylmethyl sulfonyl fluoride pH 7.0 containing 0.1 trypsin inhibitor units of aprotinin/mL. The homogenate was centrifuged at 20,000×g for 20 minutes. The supernatant was adjusted to pH 5.5. with 6N HOAc and centrifuged at 100,000×g for 1 hour. This supernatant was adjusted to pH 7.0 with 3N KOH and a 35-60% ammonium sulfate fraction taken. The 60% pellet was redissolved in 60 mL of 10 mM potassium phosphate, 10 mM mercaptoethanol, 1 mM EDTA pH 7.0 (Buffer A) and dialyzed against two 1 liter changes of Buffer A. This dialyzed fraction was applied to a 12.5×5 cm column of DEAE-sepharose 4B equilibrated with Buffer A. The column was washed with 700 mL of Buffer A and a 1 liter gradient from Buffer A to 100 mM potassium phosphate, 10 mM mercaptoethanol, 1 mM EDTA pH 7.0. Fractions having a specific activity greater than 0.20 units/mg were combined, solid ammonium sulfate was added to bring to 60% saturation and pelleted. The pellet was dissolved in 8 mL of 10 mM Tris, 10 mM β-mercaptoethanol pH 7.0 (Buffer B). The redissolved pellet was taken to 60% saturation with ammonium sulfate by adding 1.5 volumes of saturated ammonium sulfate in Buffer B. This ammonium sulfate suspension contained 3.5 units/mL with a specific activity of 0.23 units/mg and was free of isopentenyl pyrophosphate isomerase activity. This ammonium sulfate suspension was used for the synthesis of [4-^14 C]farnesyl-pyrophosphate and its activity was stable stored at 4° C. for at least 6 months.
The solvent (ethanol: 0.15N NH4 OH, 1:1) was removed from 55 μCi of [4-^14 C]isopentenyl pyrophosphate(47.9 μCi/μmole) by rotary evaporation. Six hundred microliters of 100 mM Tris, 10 mM MgCl2, 4 mM dithiothreitol pH 7.5 was added and the solution was transferred to a 1.5 ml Eppendorf centrifuge tube. Geranyl-pyrophosphate, 250 μL of a 20 mM solution, and 50 μL of the ammonium sulfate suspension of prenyl transferase were added to initiate the reaction. This incubation contained 5 μmoles of geranyl pyrophosphate, 1.15 μmoles of isopentenyl pyrophosphate, 6 μmoles of MgCl2 of 0.18 units of prenyl transferase in a volume of 900 μL. The incubation was conducted at 37° C. During the incubation, the mix turned cloudy white as the newly formed magnesium complex of farnesyl pyrophosphate precipitated out of solution. […]

| SMILES | inhibition at 0.3 µg/mL (in presence of 1 mM PPi) | IC50 (in absence of PPi) | IC50 (in presence of 1 mM PPi) |
| --- | --- | --- | --- |
| Cn1cc(-c2noc(C3CN4CCC3CC4)n2)c2cc(F)ccc21 (centres unmarked) [Compound 4, 3-[3-(5-fluoro-1-methyl-1H-indol-3-yl)-1,2,4-oxadiazol-5-yl]-1-azabicyclo[2.2.2]octane] | 97% | – | – |
| c1ccc2c(-c3noc(C4CN5CCC4CC5)n3)cccc2c1 (centres unmarked) [Compound 27, 3-[3-(1-naphthalenyl)-1,2,4-oxadiazol-5-yl]-1-azabicyclo[2.2.2]octane] | 99% | 2.3 µM | 0.011 µM |
| c1ccc2ncc(-c3noc(C4CN5CCC4CC5)n3)cc2c1 (centres unmarked) [Compound 36, 3-[3-(3-quinolyl)-1,2,4-oxadiazol-5-yl]-1-azabicyclo[2.2.2]octane] | 97% | – | 0.042 µM |
| Cc1ccc2c(c1)c(-c1noc(C3CN4CCC3CC4)n1)cn2C (centres unmarked) [Compound 19, 3-[3-(1,5-dimethyl-1H-indol-3-yl)-1,2,4-oxadiazol-5-yl]-1-azabicyclo[2.2.2]octane] | 96% | – | 0.058 µM |
| OC(c1ccccc1)c1noc(C2CN3CCC2CC3)n1 (stereo not drawn) [Compound 7, α-phenyl-5-(1-azabicyclo[2.2.2]oct-3-yl)-1,2,4-oxadiazole-3-methanol] | 49% | – | – |
| Oc1ccccc1-c1noc(C2CN3CCC2CC3)n1 (centres unmarked) [Compound 31, 2-[5-(1-azabicyclo[2.2.2]oct-3-yl)-1,2,4-oxadiazol-5-yl]-phenol] | 90% | – | – |
| O=C(c1ccccc1)c1noc(C2CN3CCC2CC3)n1 (centres unmarked) [Compound 37, 3-(3-benzoyl-1,2,4-oxadiazol-5-yl)quinuclidine] | 64% | – | – |
| c1cncc(-c2noc(C3CN4CCC3CC4)n2)c1 (centres unmarked) [Compound 26, 3-[3-(3-pyridinyl)-1,2,4-oxadiazol-5-yl]-1-azabicyclo[2.2.2]octane] | – | > 10 µM | 0.66 µM |
| Oc1cccc(-c2noc(C3CN4CCC3CC4)n2)c1 (centres unmarked) [Compound 32, 3-[5-(1-azabicyclo[2.2.2]oct-3-yl)-1,2,4-oxadiazol-5-yl]-phenol] | 92% | – | – |
| c1ccc(-c2noc(C3CN4CCC3CC4)n2)cc1 (centres unmarked) [Compound 24, 3-[3-phenyl-1,2,4-oxadiazol-5-yl]-1-azabicyclo[2.2.2]octane] | 98% | – | 0.043 µM |
| COc1cccc(-c2noc(C3CN4CCC3CC4)n2)c1 (centres unmarked) [Compound 28, 3-[3-(3-methoxyphenyl)-1,2,4-oxadiazol-5-yl]-1-azabicyclo[2.2.2]octane] | 99% | 2.8 µM | 0.031 µM |
| COc1ccccc1-c1noc(C2CN3CCC2CC3)n1 (centres unmarked) [Compound 29, 3-[3-(2-methoxyphenyl)-1,2,4-oxadiazol-5-yl]-1-azabicyclo[2.2.2]octane] | – | 14 µM | 0.25 µM |
| COc1ccc(-c2noc(C3CN4CCC3CC4)n2)cc1 (centres unmarked) [Compound 30, 3-[3-(4-methoxyphenyl)-1,2,4-oxadiazol-5-yl]-1-azabicyclo[2.2.2]octane] | 99% | – | – |
| Cn1cc(-c2noc(C3CN4CCC3CC4)n2)c2ccccc21 (centres unmarked) [Compound 3, 3-[3-(1-methyl-1H-indol-3-yl)-1,2,4-oxadiazol-5-yl]-1-azabicyclo[2.2.2]octane] | – | 1.6 µM | 0.028 µM |
| c1ccc2c(-c3noc(C4CN5CCC4CC5)n3)c[nH]c2c1 (centres unmarked) [Compound 35, 3-[3-(1H-indol-3-yl)-1,2,4-oxadiazol-5-yl]-1-azabicyclo[2.2.2]octane] | 98% | 1.9 µM | 0.023 µM |
| CC(=O)OC(c1ccccc1)c1noc(C2CN3CCC2CC3)n1 (centres unmarked) [Compound 6, 3-[3-(1-acetoxy-1-phenylmethyl)-1,2,4-oxadiazol-5-yl]-quinuclidine] | 70% | – | – |
| Oc1ccc(-c2noc(C3CN4CCC3CC4)n2)cc1 (centres unmarked) [Compound 33, 4-[5-(1-azabicyclo[2.2.2]oct-3-yl)-1,2,4-oxadiazol-5-yl]-phenol] | 84% | – | – |
| Cn1c(-c2noc(C3CN4CCC3CC4)n2)cc2ccccc21 (centres unmarked) [Compound 15, 3-[3-(1-methyl-1H-indol-2-yl)-1,2,4-oxadiazol-5-yl]-1-azabicyclo[2.2.2]octane] | – | 1.1 µM | 0.02 µM |
| OC(c1ccccc1)(c1ccccc1)c1noc(C2CN3CCC2CC3)n1 (centres unmarked) [Compound 34, 3-[3-(1,1-diphenyl-1-hydroxymethyl)-1,2,4-oxadiazol-5-yl]-quinuclidine] | 60% | – | – |
